Experimental data taken from publication PMC11322472, “Enhancing [^177Lu]Lu-DOTA-TATE therapeutic efficacy in vitro by combining it with metronomic chemotherapeutics” (EJNMMI Research, 2024).
≈ marks a conversion by molar mass, not a printed value. Where two headings read alike, the source gives them in different places. Blank lines part the entries; values can stand above or below the molecule they belong to.

Columns and labels:
BON1 cells [1] = format: cell-based, human; settings: parental BON1 cells; label = chemotherapeutic pre-treatment; MTT at day 7, N = 3
Experimental: (§1) Excess MTT was then removed. Formazan crystals were dissolved with 50 μL/well in dimethylsulfoxide (DMSO) for 2 min at room temperature (RT) under gentle agitation. Well absorbance at 570 nm was then measured on a UV/V is absorbance microplate reader (SPECTROstar® Nano, BMG LABTECH). Metabolic viability, following signal-to-background correction, was calculated as the percentage signal in treated cells normalised to the signal in untreated cells.

U2OS cells [2] = format: cell-based, human; settings: parental U2OS cells; label = chemotherapeutic pre-treatment; MTT at day 7, N = 3
Experimental: as §1

U2OS + SSTR2A cells [3] = assay: Viability after chemotherapeutic agents (GI50, MTT); format: cell-based; settings: Homo sapiens, 24 h treatment, further 5 days growth, from fitted curves, N = 3
Experimental: (§2) U2OS/U2OS + SSTR2A and BON1/BON1 + SSTR2A cells were seeded in 96-well plates at 2 × 10^3 and 4 × 10^3 cells/well, respectively, and allowed to adhere overnight in the incubator. Cells were then treated with a range of hydroxyurea, gemcitabine, and triapine concentrations for 24 h. Hydroxyurea in U2OS/U2OS + SSTR2A cells was used at 152 µg/mL for 24 h. Chemotherapeutics were then removed, and cells washed with PBS prior to returning to the incubator in fresh medium. Cells were then grown for a further 5 days post-chemotherapeutics prior to assessing metabolic viability, as described above. Chemotherapeutic concentrations needed to inhibit population growth by 50% (GI50) were then calculated.

BON1 + SSTR2A cells [4] = assay: as above; format: cell-based, human; settings: 24 h treatment, further 5 days growth, from fitted curves
Experimental: as §2

U2OS + SSTR2A cells [5] = assay: X-ray radiotherapy viability post chemotherapeutics; format: cell-based, human; settings: 24 h 2 mM HU, 4 ng/mL GEM, 200 ng/mL TRI, X-ray 0, 2 and 4 Gy, N = 3 (Figure S7)
Experimental: (§3) Cells where then treated with chemotherapeutics for 24 hours at 2 mM HU, 4 ng/mL GEM and 200 ng/mL TRI. Following chemotherapeutics, media was refreshed, and cells were X-ray irradiated at 0 (sham-irradiated), 2 and 4 Gy using the image-guided small animal radiotherapy system, SmART+, X-ray irradiator (Precision X-ray Irradiation). The calibrated dose-rate was 6.1796 Gy.min^-1; the X-ray beam used for treatment was set at a voltage of 225 kV, a current of 20 mA and passed through a 0.3 mm Cu filter. Viability analyses were then carried out as above.

U2OS cells [6] = assay: as above; format: cell-based, human; settings: 24 h 2 mM HU, 4 ng/mL GEM, 200 ng/mL TRI, X-ray 0, 2 and 4 Gy, N = 3 (Figure S7)
Experimental: as §3

U2OS cells [7] = assay: [^177Lu]Lu-DOTA-TATE uptake; format: cell-based, human; settings: U2OS parental cells, 24-hour incubation, 25 nM DOTA-TATE, 0.74–1.03 MBq, mean ± SD, N = 3–4
Experimental: (§5) 1.5 × 10^5 U2OS/U2OS + SSTR2A or 2 × 10^5 BON1/BON1 + SSTR2A cells were seeded into 6-well plates in medium and allowed to adhere overnight in the incubator. The following day, 0.70–0.93 MBq (U2OS/U2OS + SSTR2A) or 0.75–1.03 MBq (BON1/BON1 + SSTR2A) [^177Lu]Lu-DOTA-TATE was added to wells (25 nM total DOTA-TATE) and incubated for 24 h. Excess [^177Lu]Lu-DOTA-TATE was then removed from wells and pooled together with two PBS washes (“Unbound” fraction). Cell-associated activity was harvested from wells by lysing cells with 0.5 M NaOH solution and pooled with a subsequent PBS wash (“Bound” fraction). Data was presented as percentage added activity (%AA) and activity per cell (Bq/cell).

BON1 cells [8] = assay: [^177Lu]Lu-DOTA-TATE uptake; format: cell-based, human; settings: BON1 parental cells, 24-hour incubation, 25 nM DOTA-TATE, 0.74–1.03 MBq, mean ± SD, N = 3–4
Experimental: as §5

BON1 + SSTR2A cells [9] = assay: [^177Lu]Lu-DOTA-TATE uptake; format: cell-based, human; settings: 24-hour incubation, 25 nM DOTA-TATE, 0.74–1.03 MBq, mean ± SD, N = 3–4
Experimental: as §5
1.5 × 10^5 U2OS/U2OS + SSTR2A or 2 × 10^5 BON1/BON1 + SSTR2A cells were seeded into 6-well plates in DMEM-HG or DMEM/F-12 medium, respectively, and allowed to adhere overnight in the incubator. Cells where then treated with chemotherapeutics for 24 h at the following concentrations: 152 µg/mL hydroxyurea, 4 ng/mL gemcitabine, and 200 ng/mL triapine for U2OS/U2OS + SSTR2A cells; and 152 µg/mL hydroxyurea, 2 ng/mL gemcitabine, and 100 ng/mL triapine for BON1/BON1 + SSTR2A cells. Following a 4 h recovery period after chemotherapeutics, medium was replaced with 1 mL of medium containing [^177Lu]Lu-DOTA-TATE for 24 h at 0.7–0.93 MBq for U2OS/U2OS + SSTR2A cells or 0.75–1.03 MBq for BON1/BON1 + SSTR2A cells. […]

U2OS + SSTR2A cells [10] = assay: Subcellular localisation of [^177Lu]Lu-DOTA-TATE; settings: no chemotherapeutic (Untreated), 24 h, 25 nM, mean ± SD, N = 3
Experimental: (§6) Subcellular localisation of [^177Lu]Lu-DOTA-TATE in cells followed the protocol for the uptake assays above, except that, following removal of excess [^177Lu]Lu-DOTA-TATE, cells were incubated with ice-cold 0.1 M glycine (pH 2.5) for 10 min prior to pooling with a further PBS wash (“Membrane” fraction). Cells were then detached with Accutase and diluted in medium prior to pelleting and transferring the supernatant to the “Cytoplasm” fraction. The cell pellet was resuspended in ice-cold cell lysis buffer (25 mM KCl, 5 mM MgCl2, 10 mM Tris-HCl, and 0.5% v/v IGEPAL CA-630) and incubated for 15 min. Intact nuclei were pelleted and separated from lysed cells by centrifugation (10,000 g, 3 min) and the supernatant removed and combined with the previous portion of the “Cytoplasm” fraction. Pelleted nuclei were resuspended in phosphate-buffered saline (PBS) and transferred to tubes to gamma counting (“Nuclear” fraction). The percentage distribution of [^177Lu]Lu-DOTA-TATE in cells was then calculated for the membrane, cytoplasm, and nucleus.

BON1 + SSTR2A cells [11] = assay: Subcellular localisation of [^177Lu]Lu-DOTA-TATE; settings: no chemotherapeutic (Untreated), 24 h, 25 nM, mean ± SD, N = 3
Experimental: as §6

U2OS + SSTR2A cells [12] = assay: [^177Lu]Lu-DOTA-TATE uptake (with or without chemotherapeutic pre-treatment); settings: 25 nM DOTA-TATE, mean ± SD
Experimental: as §5
1.5 × 10^5 U2OS/U2OS + SSTR2A or 2 × 10^5 BON1/BON1 + SSTR2A cells were seeded into 6-well plates in DMEM-HG or DMEM/F-12 medium, respectively, and allowed to adhere overnight in the incubator. Cells where then treated with chemotherapeutics for 24 h at the following concentrations: 152 µg/mL hydroxyurea, 4 ng/mL gemcitabine, and 200 ng/mL triapine for U2OS/U2OS + SSTR2A cells; and 152 µg/mL hydroxyurea, 2 ng/mL gemcitabine, and 100 ng/mL triapine for BON1/BON1 + SSTR2A cells. Following a 4 h recovery period after chemotherapeutics, medium was replaced with 1 mL of medium containing [^177Lu]Lu-DOTA-TATE for 24 h at 0.7–0.93 MBq for U2OS/U2OS + SSTR2A cells or 0.75–1.03 MBq for BON1/BON1 + SSTR2A cells. […] Uptake and viability studies were then carried out as above.

U2OS + SSTR2A cells [13] = assay: [^177Lu]LuCl3 uptake; format: cell-based, human; settings: 0.97 MBq, 24-hour incubation, N = 3 (Figure S3)
Experimental: (§4) The following day, 0.97 MBq [^177Lu]LuCl3 was added to wells and incubated for 24 hours. […] Data is presented as both percentage uptake of total added activity and normalised as Bq/cell uptake.

U2OS cells [14] = assay: [^177Lu]LuCl3 uptake; format: cell-based, human; settings: 0.97 MBq, 24-hour incubation, N = 3 (Figure S3)
Experimental: as §4

U2OS + SSTR2A cells [15] = assay: [^177Lu]LuCl3 and DOTA-TATE viability (MTT); format: cell-based, human; settings: MTT after 7 days
Experimental: 2x10^3 U2OS or U2OS+SSTR2A cells, after treatment for 24 hours with [^177Lu]LuCl3 (0.97 MBq) or DOTA-TATE (25 nM, U2OS+SSTR2A only), were reseeded in technical sextuplet wells in 96-well plates containing a final media volume of 180 µL/well. Dedicated wells with no cells present served as background signal controls. Plates were placed in the incubator and cells allowed to adhere and grow for 7 days. After 7 days, DMEM-HG was aspirated and replaced with 90 µL of basal DMEM-HG containing 0.5 mg/mL MTT. Plates were returned to the incubator for 4 h prior to aspiration of excess MTT. Formazan crystals were then dissolved with 50 µL/well DMSO for 2 minutes at RT under gentle agitation. Well absorbance at 570 nm wavelength was then immediately measured on a UV/Vis absorbance microplate reader (SPECTROstar® Nano, BMG LABTECH). Metabolic viability, following signal background-correction, was calculated as the percentage of signal normalized to the signal of the respective fully-untreated or chemotherapeutic-alone cells.

[16] = Homo sapiens, N = 3, read-out: GI50

GI50 (U2OS + SSTR2A cells [3]): 0.0047 µg/mL (≈ 0.0179 µM)
Molecule: Nc1ccn([C@@H]2O[C@H](CO)[C@@H](O)C2(F)F)c(=O)n1 [Gemcitabine, gemcitabine]
Effect on viability of combining chemotherapeutic with [^177Lu]Lu-DOTA-TATE (BON1 cells [1]): did not affect viability
Effect on viability of combining chemotherapeutic with [^177Lu]Lu-DOTA-TATE (U2OS cells [2]): did not affect viability
GI50 (BON1 + SSTR2A cells [4]; [16]): 0.0022 µg/mL (≈ 0.00836 µM)
potentiation of X-ray radiation effects by chemotherapeutic pre-treatment (viability) (U2OS + SSTR2A cells [5]): potentiation of radiation effects was seen
potentiation of X-ray radiation effects by chemotherapeutic pre-treatment (viability) (U2OS cells [6]): potentiation of radiation effects was seen

Molecule: NC(=O)NO [Hydroxyurea, hydroxyurea]
Effect on viability of combining chemotherapeutic with [^177Lu]Lu-DOTA-TATE (BON1 cells [1]): did not affect viability
Effect on viability of combining chemotherapeutic with [^177Lu]Lu-DOTA-TATE (U2OS cells [2]): did not affect viability
GI50 (BON1 + SSTR2A cells [4]; N = 3): 248.1 (152) µg/mL
potentiation of X-ray radiation effects by chemotherapeutic pre-treatment (viability) (U2OS + SSTR2A cells [5]): potentiation of radiation effects was seen
potentiation of X-ray radiation effects by chemotherapeutic pre-treatment (viability) (U2OS cells [6]): potentiation of radiation effects was seen

GI50 (U2OS + SSTR2A cells [3]): 0.12 µg/mL (≈ 0.617 µM)
Molecule: NC(=S)N/N=C/c1ncccc1N [Triapine, triapine]
Effect on viability of combining chemotherapeutic with [^177Lu]Lu-DOTA-TATE (BON1 cells [1]): did not affect viability
Effect on viability of combining chemotherapeutic with [^177Lu]Lu-DOTA-TATE (U2OS cells [2]): did not affect viability
GI50 (BON1 + SSTR2A cells [4]; [16]): 0.327 µg/mL (≈ 1.67 µM)
potentiation of X-ray radiation effects by chemotherapeutic pre-treatment (viability) (U2OS + SSTR2A cells [5]): potentiation of radiation effects was seen
potentiation of X-ray radiation effects by chemotherapeutic pre-treatment (viability) (U2OS cells [6]): potentiation of radiation effects was seen

Molecule: C[C@@H](O)[C@H](NC(=O)[C@@H]1CSSC[C@H](NC(=O)[C@@H](Cc2ccccc2)NC(=O)CN2CCN(CC(=O)O)CCN(CC(=O)O)CCN(CC(=O)O)CC2)C(=O)N[C@@H](Cc2ccc(O)cc2)C(=O)N[C@H](Cc2c[nH]c3ccccc23)C(=O)N[C@@H](CCCCN)C(=O)N[C@@H]([C@@H](C)O)C(=O)N1)C(=O)O [[^177Lu]Lu-DOTA-TATE, [^177Lu]Lu-[DOTA^0-Tyr^3]octreotate, metal not drawn]
Uptake (mBq/cell) (U2OS cells [7]): 4.4 ± 1.0 mBq/cell
Uptake (%AA) (U2OS cells [7]; percentage added activity): 0.3 ± 0.0 %AA
Uptake (mBq/cell) (BON1 cells [8]): 6.5 ± 6.3 mBq/cell
Uptake (%AA) (BON1 cells [8]; percentage added activity): 0.5 ± 0.3 %AA
Uptake (mBq/cell) (BON1 + SSTR2A cells [9]): 111.2 ± 16.5 mBq/cell
Uptake (%AA) (BON1 + SSTR2A cells [9]; percentage added activity): 9.6 ± 0.6 %AA
Cytoplasm (%) of total uptake of [^177Lu]Lu-DOTA-TATE (U2OS + SSTR2A cells [10]): 93.5 ± 0.9%
Membrane (%) of total uptake of [^177Lu]Lu-DOTA-TATE (U2OS + SSTR2A cells [10]): 4.1 ± 0.6%
Nucleus (%) of total uptake of [^177Lu]Lu-DOTA-TATE (U2OS + SSTR2A cells [10]): 2.3 ± 0.4%
Cytoplasm (%) of total uptake of [^177Lu]Lu-DOTA-TATE (BON1 + SSTR2A cells [11]): 90.2 ± 1.7%
Membrane (%) of total uptake of [^177Lu]Lu-DOTA-TATE (BON1 + SSTR2A cells [11]): 7.3 ± 1.0%
Nucleus (%) of total uptake of [^177Lu]Lu-DOTA-TATE (BON1 + SSTR2A cells [11]): 2.5 ± 0.7%
Uptake (mBq/cell) (U2OS + SSTR2A cells [12]; U2OS + SSTR2A cells, 24-hour incubation, 0.74–1.03 MBq, N = 3–4): 216.9 ± 47.4 mBq/cell
Uptake (%AA) (U2OS + SSTR2A cells [12]; U2OS + SSTR2A cells, 24-hour incubation, 0.74–1.03 MBq, percentage added activity, N = 3–4): 17.8 ± 2.4 %AA
Internalized quantities of [^177Lu]Lu-DOTA-TATE (U2OS + SSTR2A cells [12]; untreated (no chemotherapeutic) U2OS + SSTR2A cells, 24 h, 0.7–1.03 MBq): 0.2 ± 0.05 Bq/cell

Molecule: [177Lu+3].[Cl-].[Cl-].[Cl-] [[^177Lu]LuCl3]
Uptake of unchelated [^177Lu]LuCl3 (U2OS + SSTR2A cells [13]): low
Uptake of unchelated [^177Lu]LuCl3 (U2OS cells [14]): low
metabolic viability after [^177Lu]LuCl3 (U2OS + SSTR2A cells [15]; SSTR2A-expressing cells, 0.97 MBq for 24 hours, N = 3 (Figure S4)): only minor reductions in metabolic viability

Molecule: DOTA-TATE
metabolic viability after non-radioactive DOTA-TATE (U2OS + SSTR2A cells [15]; U2OS + SSTR2A cells, 25 nM for 24 h, N = 4 (Figure S5)): did not reduce metabolic viability
